Data set [1] relates to patients with mild to moderate hypertension. The data set can be described thus: Example 19 clinical study: eplerenone versus placebo co-administered with a calcium-channel blocker. The format is in vivo, human.
Source text: This multicenter, randomized, double-blind, placebo-controlled, placebo run-in, parallel group trial involving a minimum of 120 randomized patients with hypertension (seated diastolic blood pressure [seDBP]≧95 mmHg and <110 mmHg and seated systolic BP [seSBP]<180 mmHg while taking a CCB) will consist of a one- to two-week pretreatment screening period followed by a two- to four-week single-blind placebo run-in period and an 8-week double-blind treatment period. Eligible patients will be patients currently receiving a CCB as part of their antihypertensive medication. […] The dose will not be changed for patients with adequate BP control. […] If the dose has been increased at Week 2, the patient will be reassessed at Week 6. […] If BP is uncontrolled at Week 6 and the dose has been increased at Week 2 or Week 4, the patient must be withdrawn from the study. If symptomatic hypotension (i.e., lightheadedness, dizziness, or syncope associated with low BP) occurs at any time during the study, or if DBP is ≧110 mmHg or SBP is ≧180 mmHg at any time during the trial, the patient must be withdrawn. Patients will receive study medication for a total of 8 weeks.
Patients will return to the clinic for evaluations at Weeks 0 (baseline), 2, 4, 6, 8, and 9. Heart rate, BP, adverse events and concomitant medication will be assessed at each visit. Hematology and biochemistry evaluations and urinalysis for safety will be at Weeks 0, 8, and 9. Serum potassium levels will be determined at Weeks 0 (baseline), 2, 4, 6, 8, and 9. Plasma renin, serum aldosterone, and plasma cortisol will be determined at Weeks 0 and 8. A 12-lead electrocardiogram and physical examination will be done at screening and at Week 9.
The study will consist of a one- to two-week pretreatment screening period followed by a two- to four-week single-blind placebo run-in treatment period, prior to randomization to an eight-week double-blind treatment period.
Eligible patients will be either currently receiving a CCB alone, or receiving a CCB as part of their antihypertensive medication. […] The dose will not be changed for patients with adequate BP control. […] If the dose has been increased at Week 2, the patient will be reassessed at Week-6. The dose of study medication will not be changed for patients with adequate BP control. […] If BP is uncontrolled at Week 6 and the dose has been increased at Week 2 or Week 4, the patient must be withdrawn from the study. The dose of study medication will not be changed for patients with adequate BP control. If symptomatic hypotension (i.e., lightheadedness, dizziness, or syncope associated with low BP) occurs at any time during the study, or if DBP is ≧110 mmHg or SBP is ≧180 mmHg at any time during the study, the patient must be withdrawn. Patients will receive study medication for a total of eight weeks.
Patients will return to the clinic for evaluations at Weeks 0, 2, 4, 6, 8, and 9. Heart rate, BP, adverse events and concomitant medication will be assessed at each visit. Hematology and biochemistry evaluations and urinalysis for safety will be at Weeks 0, 8, and 9. Serum potassium levels will be determined at Weeks 0, 2, 4, 6, 8, and 9. Plasma renin, serum aldosterone, and plasma cortisol will be determined at Weeks 0 and 8. […]
BP evaluations will be analyzed at each visit using two-way analysis of covariance (ANCOVA) with the baseline measurement as the covariate and treatment and center as factors. […]
The test system of a further data set is hypertensive rats. The data set can be described thus: Assay C: hypertensive rat model (renal artery clip). To be noted: combination of beta-adrenergic antagonist and eplerenone versus either component alone, after 12 to 24 weeks. The format is in vivo. From the text:
Assay “C”: Hypertensive Rat Model Male rats are made hypertensive by placing a silver clip with an aperture of 240 microns on the left renal artery, leaving the contralateral kidney untouched. Sham controls undergo the same procedure but without attachment of the clip. One week prior to the surgery, animals to be made hypertensive are divided into separate groups and drug treatment is begun. […] After 12 to 24 weeks, systolic and diastolic blood pressure, left ventricular end diastolic pressure, left ventricular dP/dt, and heart rate are evaluated. The hearts are removed, weight, measured and fixed in formalin. Collagen content of heart sections are evaluated using computerized image analysis of picrosirius stained sections.

The test system of data set [2] is rats with coronary artery ligation. Description: Assay D: myocardial infarction rat model. Conditions: combination of beta-adrenergic antagonist and eplerenone versus either component alone, after six weeks. The format is in vivo. From the text:
Assay “D” Myocardial Infarction Rat Model: male rats are anesthetized and the heart is exteriorized following a left sided thoracotomy. The left anterior descending coronary artery is ligated with a suture. The thorax is closed and the animal recovers. Sham animals have the suture passed through without ligation. One week prior to the surgery, animals to undergo infraction are divided into separate groups and drug treatment is begun. […] After six weeks, systolic and diastolic blood pressure, left ventricular end diastolic pressure, left ventricular dP/dt, and heart rate are evaluated. The hearts are removed, weight, measured and fixed in formalin. Collagen content of heart sections are evaluated using computerized image analysis of picrosirius stained sections.

The test system of the next data set is animal models. To be noted: cited from earlier work.
Where [3] appears, read: eplerenone plus CCB compared to CCB and placebo.

The structures appear in SMILES notation.

For `COC(=O)[C@@H]1CC2=CC(=O)CC[C@]2(C)[C@@]23O[C@@H]2C[C@@]2(C)[C@@H](CC[C@@]24CCC(=O)O4)[C@H]13` [eplerenone, Pregn-4-ene-7,21-dicarboxylic acid, 9,11-epoxy-17-hydroxy-3-oxo-,γ-lactone, methyl ester, (7α,11α,17β)-], the systolic blood pressure entry in data set [1] (eplerenone 50-100 mg plus fixed dose CCB versus CCB plus placebo, eight weeks) is recorded as “significant reduction”. Also, the serious adverse events entry in data set [1] (eplerenone added to CCB therapy) is “no serious adverse events”. Moreover, the active renin levels entry in data set [1] (setting [3]) is given as “greater increase”. The aldosterone levels result in data set [1] (setting [3]) is recorded as “greater increase”. For the same compound, the “change in mean diastolic blood pressure” value in data set [1] (eplerenone plus CCB versus CCB plus placebo, eight weeks) is “greater for the dual therapy group, compared to monotherapy, but this difference did not reach statistical significance”. Besides, the cardiac performance result (with hypertensive rats; in data set [2]) was “improvements in cardiac performance” each time.
Take `CC(=O)S[C@@H]1CC2=CC(=O)CC[C@]2(C)[C@H]2CC[C@@]3(C)[C@@H](CC[C@@]34CCC(=O)O4)[C@H]12` [spironolactone]: the myocardial fibrosis result in the data set with animal models (D. Klug et al 1993) was “prevents myocardial fibrosis”. Also, the fibrosis entry with animal models (irrespective of left ventricular hypertrophy and hypertension, C. G. Brilla et al 1993) is “prevent fibrosis”.

Values taken from US20040235809A1, “Epoxy steroidal aldosterone antagonist and beta-adremergic antagonist combination therepy for treatment of congestive heart failure” (priority 2000, published 2004).
